Test results as given in paper PMC10096376, “Insecticidal and Synergistic Potential of Three Monoterpenoids against the Yellow Fever Mosquito, Aedes aegypti (Diptera: Culicidae), and the House Fly, Musca domestica (Diptera: Muscidae)” (Molecules, 2023).
Several values for one entry are separate records, joined by “and”; a condition that tells them apart may be missing. Identical values can stand only once. Like-named read-outs stand apart in the source and are kept apart here.

Assays:
Aedes aegypti [1] = assay: Co-toxicity assay with permethrin (topical); details: for 1-h knockdown Co-Toxicity Factor / 24-h mortality Co-Toxicity Factor: >+20 potentiation, <−20 antagonism, −20 to +20 additive
Protocol: (§1) For Ae. aegypti, synergism assays were performed similar to the topical applications described previously, with the following modifications: 2 doses (2 µg/mosquito and 10 µg/mosquito) of each monoterpenoid were applied as synergists, similar to previous studies exploring the synergistic potential of natural products in combination with an intermediate dose-level of insecticide alone.
(§2) Mosquitoes were transferred to deli cups and kept at a controlled temperature and humidity (the same conditions as described for the topical application of insecticides and monoterpenoids alone). Again, a minimum of 3 separate rearing cohorts were used among replicates of each dose combination.
(§3) Dose responses were modeled via probit analysis, and their resulting estimates were obtained. […] A control correction option (OPTC command) was used to account for responses to the vehicle control treatments. Co-toxicity values were calculated by the method of [29]. A co-toxicity factor of >+20 signifies potentiation, <−20 antagonism, and −20 to +20 additive.

Musca domestica [2] = assay: Co-toxicity assay with permethrin (topical); format: in vivo
Protocol: […]. Each dose was formulated in a total volume of 1.5 mL of acetone. A dose of permethrin that produced approximately 50% mortality (18 ng) was used as the treatment. Female flies were sorted into groups of 20 per synergism assay and dosed as previously mentioned (i.e., the same way as in the topical toxicity assays). Flies were assessed for mortality at 24 h.

Aedes aegypti [3] = details: for 1-h knockdown Co-Toxicity Factor / 24-h mortality Co-Toxicity Factor / 48-h mortality Co-Toxicity Factor: >+20 potentiation, <−20 antagonism, −20 to +20 additive
Protocol: as §1, §2, §3

acetylcholinesterase [4] = target: acetylcholinesterase (Musca domestica, UniProt Q7YWJ9); assay: In vitro inhibition of acetylcholinesterase (Ellman), head homogenate; format: biochemical
Protocol: (§4) Acetylcholinesterase inhibition was conducted on homogenates of whole-body Ae. aegypti and M. domestica heads using Ellman’s method. For Ae. aegypti, 10 whole female adults were placed in 2 mL microcentrifuge screw cap tubes with 3–5.2 mm zircon/silica beads and homogenized in 500 μL of sodium phosphate buffer (100 mM, pH 7.8) using a Precellys Evolution bead beater (Bertin Corp., Rockville, MD, USA) set to two 15-s pulses of 5600 rpm. Afterward, 500 μL of Triton X-100 buffer (100 mM sodium phosphate, pH 7.8, 0.6% Triton X-100) was added to each tube (final Triton X-100 concentration: 0.3%), inverted several times to mix up the sample, and then centrifuged at 10,000× g for 4 min at 4 °C. The supernatant was used as the enzyme source. The same process was carried out with M. domestica, except three heads were processed in a 1000:1000 μL sodium phosphate buffer and Triton X-100 buffer in the same manner as just described.
Concentration responses were conducted in the wells of a 96-well, clear, flat-bottomed plate. Inhibitor solutions of methomyl or monoterpenoids were first dissolved in DMSO (dimethyl sulfoxide) and then diluted in sodium phosphate buffer (100 mM, pH 7.8, DMSO concentration of 1%). A volume of 10 μL of the inhibitor solution was added to each well, along with 90 μL of sodium phosphate buffer, and finally 10 μL of homogenate. This was incubated on a plate shaker at 400 rpm for 10 min at room temperature. The final concentrations for methomyl were 100 μM, 10 μM, 1 μM, 100 nM, 10 nM, 1 nM, and 0 nM. For the monoterpenoids, the same range was used except the top concentration was 1 mM and the bottom non-zero concentration was 10 nM. The final concentration of DMSO in all wells was 0.09%.
After the 10-min incubation, 100 μL of Ellman’s reagent prepared in sodium phosphate buffer and each corresponding inhibitor concentration were added to the wells using a multichannel pipette.
as §3

Aedes aegypti [5] = details: for LD10 (95% CI) / LD50 (95% CI) / LD90 (95% CI): 24 h, topical, adult females, susceptible strain
Musca domestica [6] = test system: Musca domestica
rat [7] = details: cited from earlier work
[8] = under a mercury lamp; cited from earlier work
rat [9] = details: in vivo; cited from earlier work
[10] = cited from earlier work
acetylcholinesterase [11] = target: T1, acetylcholinesterase (Aedes aegypti, UniProt Q6A2E2); assay: In vitro inhibition of acetylcholinesterase (Ellman), whole-body homogenate; format: biochemical; details: Ae. aegypti preparation, corrected for total protein; read-out: IC50 (95% CI)
T1 construct: The supernatant was used as the enzyme source; from tissue; host or cells: whole bodies of adult female Aedes aegypti, Orlando strain; Triton X-100 supernatant
Protocol: as §4
Concentration responses were conducted in the wells of a 96-well, clear, flat-bottomed plate. Inhibitor solutions of methomyl or monoterpenoids were first dissolved in DMSO (dimethyl sulfoxide) and then diluted in sodium phosphate buffer (100 mM, pH 7.8, DMSO concentration of 1%). […]
Dose responses were modeled via probit analysis, and their resulting estimates were obtained. […] Co-toxicity values were calculated by the method of [29]. […]

rabbit = details: ref 32,33 (L-fenchone), 35,36 (Permethrin), 37 (Methomyl); cited from earlier work
[12] = 10 μg synergist per Ae. aegypti
[13] = 10.2 μg PBO, 70 μg carvone, 190 μg menthone, 80 μg fenchone per fly
[14] = near-sublethal synergist dose + permethrin, >+20 potentiation, <−20 antagonism, −20 to +20 additive
[15] = 24 h, topical, adult females, susceptible strain

Sequence of acetylcholinesterase (Musca domestica, UniProt Q7YWJ9) (Q7YWJ9 81-660): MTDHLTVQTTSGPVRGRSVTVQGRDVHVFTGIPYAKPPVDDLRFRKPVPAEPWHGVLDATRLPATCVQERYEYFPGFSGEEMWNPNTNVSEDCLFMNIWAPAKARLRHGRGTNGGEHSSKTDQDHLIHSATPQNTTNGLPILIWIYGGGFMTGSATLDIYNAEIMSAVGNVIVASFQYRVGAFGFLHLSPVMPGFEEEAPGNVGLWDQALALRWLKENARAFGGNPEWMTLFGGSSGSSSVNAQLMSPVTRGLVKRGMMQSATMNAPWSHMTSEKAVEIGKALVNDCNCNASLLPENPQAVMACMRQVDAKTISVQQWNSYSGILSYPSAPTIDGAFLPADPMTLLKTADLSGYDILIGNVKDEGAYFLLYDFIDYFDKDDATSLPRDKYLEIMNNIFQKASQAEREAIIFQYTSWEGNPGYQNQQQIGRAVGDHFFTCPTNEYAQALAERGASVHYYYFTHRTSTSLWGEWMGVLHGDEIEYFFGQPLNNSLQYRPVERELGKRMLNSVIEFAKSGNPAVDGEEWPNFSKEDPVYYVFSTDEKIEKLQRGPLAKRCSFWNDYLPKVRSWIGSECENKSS
T1 sequence (Q6A2E2 1-702): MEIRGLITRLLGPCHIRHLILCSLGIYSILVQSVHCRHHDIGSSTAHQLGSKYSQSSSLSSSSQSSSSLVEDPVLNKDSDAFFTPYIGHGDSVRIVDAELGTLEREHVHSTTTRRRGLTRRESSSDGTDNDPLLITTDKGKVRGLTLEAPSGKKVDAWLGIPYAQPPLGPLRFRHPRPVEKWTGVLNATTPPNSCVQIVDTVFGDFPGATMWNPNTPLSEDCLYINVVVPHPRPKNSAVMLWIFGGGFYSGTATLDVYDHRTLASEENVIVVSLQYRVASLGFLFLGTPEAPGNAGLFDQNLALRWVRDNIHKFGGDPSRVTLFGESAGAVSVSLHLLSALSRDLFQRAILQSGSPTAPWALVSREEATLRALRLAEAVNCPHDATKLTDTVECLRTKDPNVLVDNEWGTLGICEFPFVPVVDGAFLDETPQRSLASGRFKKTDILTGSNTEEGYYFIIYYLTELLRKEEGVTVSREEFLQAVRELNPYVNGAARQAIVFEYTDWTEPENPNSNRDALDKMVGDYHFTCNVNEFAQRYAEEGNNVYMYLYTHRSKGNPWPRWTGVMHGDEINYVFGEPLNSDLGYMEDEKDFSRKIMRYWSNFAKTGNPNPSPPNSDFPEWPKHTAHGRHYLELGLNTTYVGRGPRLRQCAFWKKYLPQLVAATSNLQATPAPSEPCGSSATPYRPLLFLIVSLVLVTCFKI

Structure (SMILES): C=C(C)[C@@H]1CC=C(C)C(=O)C1 [Carvone, L-carvone]
- 1-h% Mean Knockdown ± SEM, Mixture (Aedes aegypti [1]; 2 μg synergist + permethrin 0.6 ng/mosquito): 100 ± 0%
- 1-h knockdown Co-Toxicity Factor (Aedes aegypti [1]; 2 μg synergist + permethrin): 23.5
- 24-h mortality Co-Toxicity Factor (Aedes aegypti [1]; 2 μg synergist + permethrin): 83
- 1-h% Mean Knockdown ± SEM, Synergist Alone (Aedes aegypti [1]; 2 μg synergist per Ae. aegypti): 5 ± 5%
- 24-h% Mean Mortality ± SEM, Synergist Alone (Aedes aegypti [1]; 2 μg synergist per Ae. aegypti): 5 ± 2.9%
- 1-h% Mean Knockdown ± SEM, Mixture (Aedes aegypti [1]; 10 μg synergist + permethrin 0.6 ng/mosquito): 100 ± 0%
- 1-h knockdown Co-Toxicity Factor (Aedes aegypti [1]; 10 μg synergist + permethrin): 4
- 24-h mortality Co-Toxicity Factor (Aedes aegypti [1]; 10 μg synergist + permethrin): 76
- 1-h% Mean Knockdown ± SEM, Synergist Alone (Aedes aegypti [1]; [12]): 20 ± 5.8%
- 24-h% Mean Mortality ± SEM, Synergist Alone (Aedes aegypti [1]; [12]): 7.5 ± 2.5%
- times as strong a synergist of permethrin as PBO (Aedes aegypti [1]; 24-h mortality, 2 μg synergist): 3.3
- 1-h% Mean Knockdown ± SEM, Synergist Alone (Musca domestica [2]; [13]): 16 ± 11.8%
- 24-h% Mean Mortality ± SEM, Synergist Alone (Musca domestica [2]; [13]): 0 ± 0%
- times as potent a synergist of permethrin as PBO (Musca domestica [2]; 24-h mortality): 1.2
- 1-h% Mean Knockdown ± SEM, Mixture (Musca domestica [2]; near-sublethal synergist dose (10.2 μg PBO, 70 μg carvone, 190 μg menthone, 80 μg fenchone) + permethrin 18 ng): 100 ± 0%
- 1-h knockdown Co-Toxicity Factor (Musca domestica [2]; [14]): 3.2
- 24-h mortality Co-Toxicity Factor (Musca domestica [2]; [14]): 65.6
- 1-h% Mean Knockdown ± SEM, Synergist Alone (Aedes aegypti [3]; 2 μg applied): 5 ± 5%
- 24-h% Mean Mortality ± SEM, Synergist Alone (Aedes aegypti [3]; 2 μg applied): 5 ± 2.9%
- 48-h% Mean Mortality ± SEM, Synergist Alone (Aedes aegypti [3]; 2 μg applied): 5 ± 2.9%
- 1-h% Mean Knockdown ± SEM, Mixture (Aedes aegypti [3]; 2 μg synergist + methomyl 6 ng/mosquito): 96.7 ± 3.3%
- 1-h knockdown Co-Toxicity Factor (Aedes aegypti [3]; 2 μg synergist + methomyl): 4.5
- 24-h mortality Co-Toxicity Factor (Aedes aegypti [3]; 2 μg synergist + methomyl): 23
- 48-h mortality Co-Toxicity Factor (Aedes aegypti [3]; 2 μg synergist + methomyl): 24
- 1-h% Mean Knockdown ± SEM, Synergist Alone (Aedes aegypti [3]; 10 μg applied): 20 ± 5.8%
- 24-h% Mean Mortality ± SEM, Synergist Alone (Aedes aegypti [3]; 10 μg applied): 7.5 ± 2.5%
- 48-h% Mean Mortality ± SEM, Synergist Alone (Aedes aegypti [3]; 10 μg applied): 15 ± 2.9%
- 1-h% Mean Knockdown ± SEM, Mixture (Aedes aegypti [3]; 10 μg synergist + methomyl 6 ng/mosquito): 100 ± 0%
- 1-h knockdown Co-Toxicity Factor (Aedes aegypti [3]; 10 μg synergist + methomyl): −7
- 24-h mortality Co-Toxicity Factor (Aedes aegypti [3]; 10 μg synergist + methomyl): 28
- 48-h mortality Co-Toxicity Factor (Aedes aegypti [3]; 10 μg synergist + methomyl): 8
- times as effective a synergist of methomyl as PBO (Aedes aegypti [3]; 24-h mortality, 2 μg synergist): 1.7
- inhibition of AChE (acetylcholinesterase [4]; at 1 mM, M. domestica preparation): 11.1 ± 2.9%
- LD10 (95% CI) (Aedes aegypti [5]): 3900 (1900–5200) b ng/mg body weight
- LD50 (95% CI) (Aedes aegypti [5]): 7300 (6700–7900) c ng/mg body weight
- LD90 (95% CI) (Aedes aegypti [5]): 14,200 (11,000–26,600) c ng/mg body weight
- times as toxic as fenchone (Aedes aegypti [5]; at LD10): about 1.9
- times as toxic as fenchone (Aedes aegypti [5]; at LD50): about 1.5
- times as toxic as fenchone (Aedes aegypti [5]; at LD90): about 3.0
- LD10 (95% CI) (Musca domestica [6]; [15]): 3300 (3100–3400) b ng/mg body weight
- LD50 (95% CI) (Musca domestica [6]; [15]): 4300 (4200–4400) b ng/mg body weight
- LD90 (95% CI) (Musca domestica [6]; [15]): 5600 (5300–5900) b ng/mg body weight
- times as toxic as fenchone (Musca domestica [6]; at LD10): 2.7
- times as toxic as menthone (Musca domestica [6]; at LD10): 1.6
- times as toxic as fenchone (Musca domestica [6]; at LD50): 3.1
- times as toxic as menthone (Musca domestica [6]; at LD50): 1.6
- times as toxic as fenchone (Musca domestica [6]; at LD90): 3.6
- times as toxic as menthone (Musca domestica [6]; at LD90): 1.6
- Dermal LD50 (rat [7]): >4000 (rt) mg compound per kg body weight
- half-life [8]: 23 to 27.8 h
- Oral LD50 (rat [9]): 5400 (rt) mg compound per kg body weight
- half-life ([10]; acidic conditions): ≤ 108 h

Structure (SMILES): CNC(=O)ON=C(C)SC [Methomyl, methomyl, reference compound]
- 1-h% Mean Knockdown ± SEM, Methomyl Alone (Aedes aegypti [3]; methomyl 6 ng/mosquito): 87.5 ± 9.5%
- 24-h% Mean Mortality ± SEM, Methomyl Alone (Aedes aegypti [3]; methomyl 6 ng/mosquito): 57.5 ± 25.3%
- 48-h% Mean Mortality ± SEM, Methomyl Alone (Aedes aegypti [3]; methomyl 6 ng/mosquito): 65 ± 21.8%
- IC50 (acetylcholinesterase [11]): 2500 nM and 1700 nM
- inhibition at 100 µM (acetylcholinesterase [4]; at 100 µM, preparation not given, follows the M. domestica values, read-out: inhibition of AChE): 99.4 ± 0.1%
- LD10 (95% CI) (Aedes aegypti [5]): 0.97 (0.27–1.6) a ng/mg body weight
- LD50 (95% CI) (Aedes aegypti [5]): 2.7 (1.6–4.3) b ng/mg body weight
- LD90 (95% CI) (Aedes aegypti [5]): 7.55 (4.7–22.5) b ng/mg body weight
- LD50 (Musca domestica [6]; topical, sufficient toxicity not observed at highest doses applied): > 100 ng
- Oral LD50 (rat [9]): 17–24 (rt) mg compound per kg body weight
- Dermal LD50 (rabbit): 5880 (rb) mg compound per kg body weight
- aerobic soil half-life [10]: approximately 14 d
